In patent US4482707A, “Aminoglycoside antibiotic saccharocins” (Toyo Jozo Kabushiki Kaisha, priority 1981, dated 1984):
≈ marks a conversion by molar mass, not a printed value. Where two headings read alike, the source gives them in different places.

Tests used:
[1] = system: Bacillus subtilis ATCC6633; experiment: MIC by the agar dilution method; type: cell-based
Description: (§1) The minimum inhibitory concentration (MIC) of saccharocin and 3'-oxysaccharocin by the agar dilution method are shown in Table 1.

[2] = system: Citrobacter freundie GN346; experiment: MIC by the agar dilution method; type: cell-based
Description: as §1

[3] = system: Enterobacter aerogenes 055; experiment: MIC by the agar dilution method; type: cell-based; conditions: Klebsiella aerogenes
Description: as §1

[4] = system: Enterobacter cloacae GN336; experiment: MIC by the agar dilution method; type: cell-based
Description: as §1

[5] = system: Escherichia coli NIHJ-JC2; experiment: MIC by the agar dilution method; type: cell-based; conditions: NIHJJC2
Description: as §1

[6] = system: Escherichia coli W3630RGN14; experiment: MIC by the agar dilution method; type: cell-based
Description: as §1

Escherichia coli W3630 = experiment: MIC by the agar dilution method; type: cell-based
Description: as §1

[7] = system: Klebsiella pneumoniae ATCC 10031; experiment: MIC by the agar dilution method; type: cell-based; conditions: ATCC10031
Description: as §1

Proteus morganii 0239 = experiment: MIC by the agar dilution method; type: cell-based; conditions: Morganella morganii
Description: as §1

Proteus rettgeri ACR = experiment: MIC by the agar dilution method; type: cell-based; conditions: Providencia rettgeri
Description: as §1

[8] = system: Pseudomonas aeruginosa 1946; experiment: MIC by the agar dilution method; type: cell-based
Description: as §1

[9] = system: Pseudomonas aeruginosa 2512; experiment: MIC by the agar dilution method; type: cell-based
Description: as §1

[10] = system: Pseudomonas aeruginosa ML4561 RP4; experiment: MIC by the agar dilution method; type: cell-based; conditions: ML4561RP4
Description: as §1

[11] = system: Pseudomonas aeruginosa ML4561 Rm3164-1; experiment: MIC by the agar dilution method; type: cell-based; conditions: ML4561RM31641
Description: as §1

[12] = system: Pseudomonas aeruginosa ML4561 Rm3166; experiment: MIC by the agar dilution method; type: cell-based; conditions: ML4561RM3166
Description: as §1

[13] = system: Pseudomonas aeruginosa ML4561; experiment: MIC by the agar dilution method; type: cell-based
Description: as §1

Pseudomonas aeruginosa = experiment: MIC by the agar dilution method; type: cell-based; conditions: Pseudomonas aeruginosa (no strain code)
Description: as §1

[14] = system: Pseudomonas martfiriae 1850; experiment: MIC by the agar dilution method; type: cell-based
Description: as §1

Pseudomonas putida 1842 = experiment: MIC by the agar dilution method; type: cell-based
Description: as §1

[15] = system: Salmonella enteritidis gaertner; experiment: MIC by the agar dilution method; type: cell-based; conditions: Salmonella enterica
Description: as §1

Serratia marcescens = experiment: MIC by the agar dilution method; type: cell-based
Description: as §1

Shigella sonnei E33 = experiment: MIC by the agar dilution method; type: cell-based
Description: as §1

[16] = system: Staphylococcus aureus 0119; experiment: MIC by the agar dilution method; type: cell-based
Description: as §1

[17] = system: Staphylococcus aureus ATCC 6538P; experiment: MIC by the agar dilution method; type: cell-based; conditions: ATCC6538P
Description: as §1

[18] = system: Staphylococcus aureus MS27; experiment: MIC by the agar dilution method; type: cell-based
Description: as §1

[19] = system: Staphylococcus epidermidis ap-al-1; experiment: MIC by the agar dilution method; type: cell-based; conditions: APAL1
Description: as §1

[20] = system: Streptococcus pyogenes N.Y.5; experiment: MIC by the agar dilution method; type: cell-based
Description: as §1

Solubility = type: physicochemical
[21] = system: Saccharopolyspora sp. AC 3440; experiment: Resistance on antibiotics of the producing strain; type: cell-based
[22] = acetone, benzene, ethyl acetate
[23] = 336 h, resistance of producing strain AC 3440, 37° C., 14 days, read-out: MIC
[24] = resistance of producing strain AC 3440, 37° C., 14 days

## CNC1C(OC2OC(CO)C(O)C(O)C2O)OC2C(O)C(N)C(OC3C(N)CC(N)C(O)C3O)OC2C1O (stereo not drawn) [3'-oxysaccharocin]
[1]
  MIC: 3.1 µg/mL (≈ 5.57 µM)
[2]
  MIC: 12.5 µg/mL (≈ 22.5 µM)
[3]
  MIC: 12.5 µg/mL (≈ 22.5 µM)
[4]
  MIC: 12.6 µg/mL (≈ 22.6 µM)
[5]
  MIC: 12.5 µg/mL (≈ 22.5 µM)
[6]
  MIC: 12.5 µg/mL (≈ 22.5 µM)
Escherichia coli W3630
  MIC: 3.1 µg/mL (≈ 5.57 µM)
[7]
  MIC: 12.5 µg/mL (≈ 22.5 µM)
Proteus morganii 0239
  MIC: 12.5 µg/mL (≈ 22.5 µM)
Proteus rettgeri ACR
  MIC: 12.5 µg/mL (≈ 22.5 µM)
[8]
  MIC: > 50 µg/mL
[9]
  MIC: 50 µg/mL (≈ 89.8 µM)
[10]
  MIC: 50 µg/mL (≈ 89.8 µM)
[11]
  MIC: 50 µg/mL (≈ 89.8 µM)
[12]
  MIC: 25 µg/mL (≈ 44.9 µM)
[13]
  MIC: 50 µg/mL (≈ 89.8 µM)
Pseudomonas aeruginosa
  MIC: 50 µg/mL (≈ 89.8 µM)
[14]
  MIC: > 50 µg/mL
Pseudomonas putida 1842
  MIC: 50 µg/mL (≈ 89.8 µM)
[15]
  MIC: 12.5 µg/mL (≈ 22.5 µM)
Serratia marcescens
  MIC: 12.5 µg/mL (≈ 22.5 µM)
Shigella sonnei E33
  MIC: 25 µg/mL (≈ 44.9 µM)
[16]
  MIC: 12.5 µg/mL (≈ 22.5 µM)
[17]
  MIC: 25 µg/mL (≈ 44.9 µM)
[18]
  MIC: 25 µg/mL (≈ 44.9 µM)
[19]
  MIC: 12.5 µg/mL (≈ 22.5 µM)
[20]
  MIC: 50 µg/mL (≈ 89.8 µM)
Solubility; [22]
  Solubility: insoluble
Solubility; water
  Solubility: soluble

## NC[C@H]1O[C@H](O[C@H]2[C@H](O)[C@@H](O[C@H]3O[C@H](CO)[C@@H](O)[C@H](N)[C@H]3O)[C@H](N)C[C@@H]2N)[C@H](O)[C@@H](O)[C@@H]1O [Kanamycin]
[21]; 336 h
  MIC: > 100 µg/mL

## CCCC(=O)OC1C(C)OC(OC2C(C)OC(OC3C(CC=O)CC(C)C(O)C=CC=CCC(C)OC(=O)CC(O)C3OC)C(O)C2N(C)C)CC1(C)O (stereo not drawn) [Leucomycin A5]
[21]; [23]
  MIC: > 100 µg/mL

## NC[C@@H]1O[C@H](O[C@H]2[C@@H](O)[C@H](O[C@@H]3[C@@H](O)[C@H](N)C[C@H](N)[C@H]3O[C@H]3O[C@H](CO)[C@@H](O)[C@H](O)[C@H]3N)O[C@@H]2CO)[C@H](N)[C@@H](O)[C@@H]1O [Paromomycin]
[21]; [23]
  MIC: 50 µg/mL (≈ 81.2 µM)

## CO[C@H]1/C=C/O[C@@]2(C)Oc3c(C)c(O)c4c(O)c(c(/C=N/N5CCN(C)CC5)c(O)c4c3C2=O)NC(=O)/C(C)=C\C=C\[C@H](C)[C@H](O)[C@@H](C)[C@@H](O)[C@@H](C)[C@H](OC(C)=O)[C@@H]1C [Rifampicin]
[21]; 336 h
  MIC: < 12.5 µg/mL

## CNC1C(OC2OC(CO)C(O)C(O)C2O)OC2CC(N)C(OC3C(N)CC(N)C(O)C3O)OC2C1O (stereo not drawn) [Saccharocin]
[1]
  MIC: 0.8 µg/mL (≈ 1.48 µM)
[2]
  MIC: 6.3 µg/mL (≈ 11.7 µM)
[3]
  MIC: 6.3 µg/mL (≈ 11.7 µM)
[4]
  MIC: 6.3 µg/mL (≈ 11.7 µM)
[5]
  MIC: 6.3 µg/mL (≈ 11.7 µM)
[6]
  MIC: 3.1 µg/mL (≈ 5.73 µM)
Escherichia coli W3630
  MIC: 1.6 µg/mL (≈ 2.96 µM)
[7]
  MIC: 3.1 µg/mL (≈ 5.73 µM)
Proteus morganii 0239
  MIC: 6.3 µg/mL (≈ 11.7 µM)
Proteus rettgeri ACR
  MIC: 3.1 µg/mL (≈ 5.73 µM)
[8]
  MIC: > 100 µg/mL
[9]
  MIC: 50 µg/mL (≈ 92.5 µM)
[10]
  MIC: 12.5 µg/mL (≈ 23.1 µM)
[11]
  MIC: 25 µg/mL (≈ 46.2 µM)
[12]
  MIC: 12.5 µg/mL (≈ 23.1 µM)
[13]
  MIC: 25 µg/mL (≈ 46.2 µM)
Pseudomonas aeruginosa
  MIC: 25 µg/mL (≈ 46.2 µM)
[14]
  MIC: > 100 µg/mL
Pseudomonas putida 1842
  MIC: 25 µg/mL (≈ 46.2 µM)
[15]
  MIC: 6.3 µg/mL (≈ 11.7 µM)
Serratia marcescens
  MIC: 6.3 µg/mL (≈ 11.7 µM)
Shigella sonnei E33
  MIC: 6.3 µg/mL (≈ 11.7 µM)
[16]
  MIC: 6.3 µg/mL (≈ 11.7 µM)
[17]
  MIC: 12.5 µg/mL (≈ 23.1 µM)
[18]
  MIC: 12.5 µg/mL (≈ 23.1 µM)
[19]
  MIC: 6.3 µg/mL (≈ 11.7 µM)
[20]
  MIC: 25 µg/mL (≈ 46.2 µM)
Solubility; [22]
  Solubility: insoluble
Solubility; water
  Solubility: soluble

## [H]/N=C(/N)N[C@H]1[C@H](O)[C@@H](O)[C@H](O[C@@H]2O[C@@H](C)[C@](O)(C=O)[C@H]2O[C@@H]2O[C@@H](CO)[C@H](O)[C@@H](O)[C@@H]2NC)[C@@H](N/C(N)=N\[H])[C@@H]1O [Streptomycin]
[21]; [23]
  MIC: 25 µg/mL (≈ 43 µM)

## NC[C@H]1O[C@H](O[C@H]2[C@H](O)[C@@H](O[C@H]3O[C@H](CO)[C@@H](O)[C@H](N)[C@H]3O)[C@H](N)C[C@@H]2N)[C@H](N)C[C@@H]1O [Tobramycin]
[21]; [23]
  MIC: > 100 µg/mL

## Gentamicin
[21]; [24]
  MIC: > 100 µg/mL

## Neomycin
[21]; [24]
  MIC: 100 µg/mL
